We go through five molecules from patent publication US12534700B2, “Beneficial microbes for delivery of effector peptides or proteins and use thereof” (priority 2016, dated 2026).

Data set [1] concerns tobacco leaves. Conditions: peptides described in prior applications; cited from earlier work.
Data set [2] in a line: Confirmation of soluble protein in bacterial cell lysates. The settings on record: B. subtilis lysate, Bugbuster plus lysozyme, 20,000 g for 10 minutes at 4° C. It is filed as physicochemical. As for the experimental part:
Fluorescent colonies from Example 3 were inoculated into 5 ml cultures of LB medium supplemented with 10 ug/ml Kanamycin and grown for 2 days with 170 rpm shaking at 37° C. Cells were harvested by centrifugation (5000 g for 15 minutes at 4° C.). The culture was decanted away from the cell pellet. The cell pellets were resuspended in 1 ml each of Bugbuster Protein Extraction Reagent (EMD Millipore, Billerica, MA, USA) supplemented with 200 ug/ml of lysozyme. Lysis was allowed to proceed for 20 minutes at room temperature (20° C.). The lysates were centrifuged at 20,000 g for 10 minutes at 4° C. to separate soluble from insoluble proteins.

Data set [3] has as its system tobacco leaves. Nature of the data set: Hypersensitive response test of purified Fresno-p5-21 infused into tobacco leaves. It is filed as in vivo. Conditions: after 2 days. As for the experimental part:
The production and purification procedure of Examples 4 and 5 were scaled up to 1 L to produce a quantity of protein appropriate for hypersensitive response elicitation in tobacco leaves.
Briefly, 1 L of LB culture media was supplemented with 10 ug/ml Kanamycin and cells were grown as in Example 3 for 2 days in a baffled flask. Cells were harvested at 6000 g for 20 minutes at 4° C. Culture supernatant was removed from the cells and the cells were resuspended in 20 ml of Bugbuster Protein Extraction Reagent supplemented with 50 ug/ml lysozyme. The sample was gently rocked at room temperature for 30 minutes and then frozen on liquid nitrogen and stored at −80° C.
The sample was thawed on ice and a 1/50 volume of 500 mM imidazole was added for a final concentration of 10 mM imidazole. 8 ml of the sample was mixed with 2 ml of settled Ni-NTA agarose resin (5-Prime) end-over-end for 2 hours at 4° C. The column was then settled for 20 minutes and allowed to flow by gravity. The flowthrough was collected. The resin was washed with 5 column volumes of 50 mM sodium phosphate, 15 mM imidazole, 200 mM NaCl. Finally, the protein was eluted with 250 mM imidazole, pH 7.5. […] The protein concentration was quantified by UV/Vis spectroscopy using a Nanodrop 2000 (Thermo Fisher Scientific, Waltham, MA, USA). […]

With SAGSEQQLDQLLLMFIMMMLQQ [P5a], the “induction of a hypersensitive response” value in the data set with tobacco leaves [1] is “capable of inducing a hypersensitive response”.

With SAGSEQQLDLLLMFIMMMLQQ [P5], in the data set with tobacco leaves [1], the “induction of a hypersensitive response” value is given as “capable of inducing a hypersensitive response”.

Turning to SEEQLELLLAFIAAALQQEE [P5-21], the “induction of a hypersensitive response” value with tobacco leaves [1] is reported as “capable of inducing a hypersensitive response”.

For the molecule “SEEEEQLDOLLLAFIAAALQQ (SEEEEQLDQLLLAFIAAALQQ; P5-25)”, the “induction of a hypersensitive response” value in the data set on tobacco leaves [1] is given as “does not”.

B1: Fresno-P5-21: Red fluorescent protein Fresno fused at C-terminus to harpin peptide P5-21 and 6×His tag, SEQ ID NO: 13 (protein)
chain: MNSLIKENMHMKLYMEGTVNNHHFKCTSEGEGKPYEGTQTMRIKVVEGGPLPFAFDILATSFMYGSRTFIKYPKGIPDFFKQSFPEGFTWERVTRYEDGGVVTATQDTSLEDGCLVYHVQVRGVNFPSNGPVMQKKTLGWEPNTEMLYPADGGLEGRSDMALKLVGGGHLSCSFVTTYRSKKTVGNIKMPGIHAVDHRLVRIKEADKETYVEQHEVAVAKFAGLGGGMDELYKSEEQLELLLAFIAAALQQEESRHHHHHH
B1: the “solubility of recombinant protein (colour of lysate supernatant)” value in data set [2] is recorded as “soluble”. Also, the “hypersensitive response (lesions typical of HR)” value in the data set on tobacco leaves [3] (1× concentration (about 100 ug/ml protein)) and in the data set on tobacco leaves [3] (2× dilution) was “caused lesions” throughout.
